Test results reported in patent US11053204B2, “Pyrimidinyloxy benzene derivatives as herbicides” (FMC Corporation, priority 2015, dated 2021).

Key:
Experiment in all cases: Test C postemergence, plant response rating
Assay type in all cases: in vivo
[1] = test system: morningglory (Ipomoea coccinea); details: Ipomoea, post-emergence
Procedure, shortened: (§1)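 Pre-emergence: seeds sown in loam soil–sand blend or silt loam and sprayed with test chemicals in a non-phytotoxic solvent mixture with surfactant. Post-emergence: plants 2 to 18 cm (1- to 4-leaf stage) in peat-based potting medium, same formulation. Greenhouse 13 to 15 d; visual rating 0 (no effect) to 100 (complete control) versus controls.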

[2] = test system: waterhemp (common waterhemp, Amaranthus rudis); details: for Plant response rating, Waterhemp: scale 0 to 100; for Waterhemp plant response rating: scale 0 to 100 (0 no effect, 100 complete control)
Procedure, shortened: as §1

[3] = test system: wheat (winter wheat, Triticum aestivum); details: Triticum aestivum, post-emergence
Procedure, shortened: as §1

[4] = test system: velvetleaf (Abutilon theophrasti); details: Abutilon theophrasti, post-emergence
Procedure, shortened: as §1

kochia (Kochia scoparia) = details: Bassia scoparia, post-emergence
Procedure, shortened: as §1

[5] = test system: oilseed rape (Brassica napus); details: Brassica napus, post-emergence
Procedure, shortened: as §1

soybean (Glycine max) = details: Glycine max, post-emergence
Procedure, shortened: as §1

[6] = test system: lambsquarters (Chenopodium album); details: Chenopodium album, post-emergence
Procedure, shortened: as §1

[7] = test system: nutsedge, yellow (yellow nutsedge, Cyperus esculentus); details: Cyperus, post-emergence
Procedure, shortened: as §1

[8] = test system: oat, wild (wild oat Avena fatua); details: Avena fatua, post-emergence
Procedure, shortened: as §1

corn (Zea mays) = details: Zea mays, post-emergence
Procedure, shortened: as §1

[9] = test system: ragweed (common ragweed, Ambrosia elatior); details: Ambrosia artemisiifolia, post-emergence
Procedure, shortened: as §1

[10] = test system: chickweed (common chickweed, Stellaria media); details: Stellaria media, post-emergence
Procedure, shortened: as §1

[11] = test system: foxtail, giant (giant foxtail, Setaria faberii); details: Setaria faberi, post-emergence
Procedure, shortened: as §1

[12] = test system: galium (catchweed bedstraw, Galium aparine); details: Galium, post-emergence
Procedure, shortened: as §1

[13] = test system: blackgrass (Alopecurus myosuroides); details: Alopecurus myosuroides, post-emergence
Procedure, shortened: as §1

[14] = 62 g ai/ha, scale 0 to 100 (0 no effect, 100 complete control)
[15] = 125 g ai/ha, scale 0 to 100 (0 no effect, 100 complete control)

`O=C(OCCC(F)(F)F)c1c(Br)cccc1Oc1ncc(Cl)cn1` [Compound 26, 3,3,3-trifluoropropyl 2-bromo-6-[(5-chloro-2-pyrimidinyl)oxy]benzoate] was tested, and the pest or weed control at 16 g/ha ([1]; 16 g ai/ha, scale 0 to 100) was 65%, the pest or weed control at 31 g/ha ([1]; 31 g ai/ha, scale 0 to 100) was 60% and the pest or weed control at 62 g/ha [1, 14] was 65%. The pest or weed control at 125 g/ha [1, 15] was 85%, the “Plant response rating, Waterhemp” value ([2]; 16 g ai/ha) was 95 and the “Plant response rating, Waterhemp” value ([2]; 31 g ai/ha) was 98. The “Waterhemp plant response rating” value ([2]; 62 g ai/ha) was 98, the “Waterhemp plant response rating” value ([2]; 125 g ai/ha) was 100 and the plant injury at 16 g/ha ([3]; 16 g ai/ha, scale 0 to 100) was 0%. For the same compound, the plant injury at 31 g/ha ([3]; 31 g ai/ha, scale 0 to 100) was 0%, the plant injury at 62 g/ha ([3]; 62 g ai/ha, scale 0 to 100 (0 no effect, 100 complete control), read-out: Wheat plant response rating) was 5% and the plant injury at 125 g/ha [3, 15] was 10%. The pest or weed control at 16 g/ha ([4]; 16 g ai/ha, scale 0 to 100) was 30%, the pest or weed control at 31 g/ha ([4]; 31 g ai/ha, scale 0 to 100) was 55% and the pest or weed control at 62 g/ha ([4]; 62 g ai/ha, scale 0 to 100 (0 no effect, 100 complete control), read-out: Velvetleaf plant response rating) was 75%. It also gave a pest or weed control at 125 g/ha [4, 15] of 80%, a pest or weed control at 16 g/ha (kochia (Kochia scoparia); 16 g ai/ha, scale 0 to 100) of 90% and a pest or weed control at 31 g/ha (kochia (Kochia scoparia); 31 g ai/ha, scale 0 to 100) of 90%. The pest or weed control at 62 g/ha (kochia (Kochia scoparia); [14]) was 90%, the pest or weed control at 125 g/ha (kochia (Kochia scoparia); [15]) was 95% and the plant injury at 16 g/ha ([5]; 16 g ai/ha, scale 0 to 100) was 40%. It also gave a plant injury at 31 g/ha ([5]; 31 g ai/ha, scale 0 to 100) of 75%, a plant injury at 62 g/ha [5, 14] of 75% and a plant injury at 125 g/ha [5, 15] of 80%. The plant injury at 16 g/ha (soybean (Glycine max); 16 g ai/ha, scale 0 to 100) was 65%, the plant injury at 31 g/ha (soybean (Glycine max); 31 g ai/ha, scale 0 to 100) was 55% and the plant injury at 62 g/ha (soybean (Glycine max); [14]) was 65%. For the same compound, the plant injury at 125 g/ha (soybean (Glycine max); [15]) was 75%, the pest or weed control at 16 g/ha ([6]; 16 g ai/ha, scale 0 to 100) was 75% and the pest or weed control at 31 g/ha ([6]; 31 g ai/ha, scale 0 to 100) was 90%. For the same compound, the pest or weed control at 62 g/ha [6, 14] was 98%, the pest or weed control at 125 g/ha [6, 15] was 98% and the pest or weed control at 16 g/ha ([7]; 16 g ai/ha, scale 0 to 100) was 5%. For the same compound, the pest or weed control at 31 g/ha ([7]; 31 g ai/ha, scale 0 to 100) was 10%, the pest or weed control at 62 g/ha [7, 14] was 10% and the pest or weed control at 125 g/ha [7, 15] was 10%. The pest or weed control at 16 g/ha ([8]; 16 g ai/ha, scale 0 to 100) was 10%, the pest or weed control at 31 g/ha ([8]; 31 g ai/ha, scale 0 to 100) was 10% and the pest or weed control at 62 g/ha [8, 14] was 15%. It also gave a pest or weed control at 125 g/ha [8, 15] of 35%, a Corn plant response rating (crop injury, 0 = no effect, 100 = complete kill) at 16 g/ha (corn (Zea mays); 16 g ai/ha, scale 0 to 100) of 20% and a Corn plant response rating (crop injury, 0 = no effect, 100 = complete kill) at 31 g/ha (corn (Zea mays); 31 g ai/ha, scale 0 to 100) of 25%. For the same compound, the plant injury at 62 g/ha (corn (Zea mays); [14]) was 20%, the plant injury at 125 g/ha (corn (Zea mays); [15]) was 25% and the pest or weed control at 16 g/ha ([9]; 16 g ai/ha, scale 0 to 100) was 40%. The pest or weed control at 31 g/ha ([9]; 31 g ai/ha, scale 0 to 100) was 55%, the pest or weed control at 62 g/ha [9, 14] was 55% and the pest or weed control at 125 g/ha [9, 15] was 90%. The pest or weed control at 16 g/ha ([10]; 16 g ai/ha, scale 0 to 100) was 55%, the pest or weed control at 31 g/ha ([10]; 31 g ai/ha, scale 0 to 100) was 80% and the pest or weed control at 62 g/ha [10, 14] was 85%. It also gave a pest or weed control at 125 g/ha [10, 15] of 98%, a pest or weed control at 16 g/ha ([11]; 16 g ai/ha, scale 0 to 100) of 10% and a pest or weed control at 31 g/ha ([11]; 31 g ai/ha, scale 0 to 100) of 10%. The pest or weed control at 62 g/ha [11, 14] was 10%, the pest or weed control at 125 g/ha [11, 15] was 25% and the pest or weed control at 16 g/ha ([12]; 16 g ai/ha, scale 0 to 100) was 55%. The pest or weed control at 31 g/ha ([12]; 31 g ai/ha, scale 0 to 100) was 80%, the pest or weed control at 62 g/ha [12, 14] was 95% and the pest or weed control at 125 g/ha [12, 15] was 95%. The pest or weed control at 16 g/ha ([13]; 16 g ai/ha, scale 0 to 100) was 10%, the pest or weed control at 31 g/ha ([13]; 31 g ai/ha, scale 0 to 100) was 15% and the pest or weed control at 62 g/ha [13, 14] was 15%. For the same compound, the pest or weed control at 125 g/ha [13, 15] was 35%.
